Experimental data reported in ChEMBL document CHEMBL4265883, “Nav1.7 inhibitors for the treatment of chronic pain” (Bioorg Med Chem Lett, 2018).

Legend:
Homo sapiens = species: Homo sapiens; assay: Selectivity ratio of IC50 for human Nav1.5 to IC50 for human Nav1.7
[1] = target: Sodium channel protein type 9 subunit alpha (Homo sapiens, UniProt Q15858); assay: Inhibition of human Nav1.7 expressed in HEK293 cells by electrophysiology assay; format: cell-based
Sodium channel protein type 9 subunit alpha, sequence (Q15858 whole entry): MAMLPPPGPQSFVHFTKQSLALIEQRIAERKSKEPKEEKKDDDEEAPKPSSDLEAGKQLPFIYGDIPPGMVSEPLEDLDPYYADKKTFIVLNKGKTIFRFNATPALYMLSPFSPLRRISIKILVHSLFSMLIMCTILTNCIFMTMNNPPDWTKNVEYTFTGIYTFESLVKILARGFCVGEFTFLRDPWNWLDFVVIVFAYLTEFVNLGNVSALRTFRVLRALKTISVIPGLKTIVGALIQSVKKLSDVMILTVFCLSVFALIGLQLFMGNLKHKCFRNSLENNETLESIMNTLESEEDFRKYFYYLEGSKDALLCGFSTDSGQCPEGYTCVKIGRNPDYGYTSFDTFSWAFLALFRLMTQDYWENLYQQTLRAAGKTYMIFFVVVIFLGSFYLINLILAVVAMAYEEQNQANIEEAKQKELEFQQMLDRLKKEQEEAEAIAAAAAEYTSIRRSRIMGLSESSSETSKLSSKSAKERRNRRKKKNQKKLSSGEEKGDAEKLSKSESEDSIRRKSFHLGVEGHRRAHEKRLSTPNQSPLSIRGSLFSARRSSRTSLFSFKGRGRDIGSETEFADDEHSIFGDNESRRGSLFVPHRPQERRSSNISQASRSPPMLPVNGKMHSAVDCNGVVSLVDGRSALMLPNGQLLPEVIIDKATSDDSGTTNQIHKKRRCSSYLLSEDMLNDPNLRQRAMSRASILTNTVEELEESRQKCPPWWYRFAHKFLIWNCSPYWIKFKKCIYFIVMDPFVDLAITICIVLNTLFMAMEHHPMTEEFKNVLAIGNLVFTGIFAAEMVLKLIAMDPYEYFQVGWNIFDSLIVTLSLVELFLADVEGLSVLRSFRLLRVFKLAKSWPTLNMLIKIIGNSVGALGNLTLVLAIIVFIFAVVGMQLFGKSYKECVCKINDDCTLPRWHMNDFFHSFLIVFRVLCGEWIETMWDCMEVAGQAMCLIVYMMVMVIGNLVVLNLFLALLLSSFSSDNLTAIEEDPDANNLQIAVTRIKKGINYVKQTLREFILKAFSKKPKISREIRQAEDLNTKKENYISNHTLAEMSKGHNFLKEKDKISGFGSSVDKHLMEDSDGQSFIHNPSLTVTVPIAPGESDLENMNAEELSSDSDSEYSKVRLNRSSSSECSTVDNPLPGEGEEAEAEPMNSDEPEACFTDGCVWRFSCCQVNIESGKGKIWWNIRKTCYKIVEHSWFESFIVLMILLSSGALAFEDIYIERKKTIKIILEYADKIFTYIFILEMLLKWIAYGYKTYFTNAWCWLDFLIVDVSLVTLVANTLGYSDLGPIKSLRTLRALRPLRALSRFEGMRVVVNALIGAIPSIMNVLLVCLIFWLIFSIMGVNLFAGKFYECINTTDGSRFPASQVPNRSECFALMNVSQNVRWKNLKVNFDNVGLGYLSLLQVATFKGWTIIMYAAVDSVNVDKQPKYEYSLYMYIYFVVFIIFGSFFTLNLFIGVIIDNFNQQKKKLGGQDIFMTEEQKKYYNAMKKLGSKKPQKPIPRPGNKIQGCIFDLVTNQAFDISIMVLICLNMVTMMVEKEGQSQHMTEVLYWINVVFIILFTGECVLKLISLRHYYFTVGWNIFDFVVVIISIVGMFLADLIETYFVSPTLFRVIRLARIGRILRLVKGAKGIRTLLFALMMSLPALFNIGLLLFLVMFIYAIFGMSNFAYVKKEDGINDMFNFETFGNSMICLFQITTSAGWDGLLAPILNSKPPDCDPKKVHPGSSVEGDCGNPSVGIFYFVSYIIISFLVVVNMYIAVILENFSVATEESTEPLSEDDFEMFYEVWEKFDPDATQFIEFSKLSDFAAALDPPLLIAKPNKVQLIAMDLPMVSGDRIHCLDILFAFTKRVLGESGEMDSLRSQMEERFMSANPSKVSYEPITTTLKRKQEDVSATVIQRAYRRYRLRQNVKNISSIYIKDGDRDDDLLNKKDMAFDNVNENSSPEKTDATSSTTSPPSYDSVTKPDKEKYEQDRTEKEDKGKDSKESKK

Row | Compound | Ratio IC50 (Homo sapiens) | IC50 [1] [nM]
1 | O=C(O)[C@@H]1C[C@@H](F)CN1C(=O)c1cc(C2CC2)c(OCC2CCN(Cc3c(Cl)cccc3Cl)CC2)cc1F | > 150 | –
2 | Cc1nn(-c2cnc(OCC(C)C)c(Cl)c2)c2ccc(C(=O)NS(C)(=O)=O)cc12 [PF-05241328] | – | 31
3 | CN[C@H](CNc1cc(F)c(S(=O)(=O)Nc2nccs2)cc1Cl)Cc1cccc(Cl)c1 | > 1380 | 15
